# Where “and” joins values, the source holds several entries; their conditions need not be identical. Identical values can stand only once. Inconclusive results are not listed.
# Tested on: CD8F1 mice, subcutaneous mammary adenocarcinoma, T/C%
# Assay: NCI In Vivo Anticancer Drug Screen. Data for tumor model Mammary Adenocarcinoma CD8F1 (subcutaneous) in CD8F1
# Details: higher = larger tumour
# Experimental: The antitumor activity of compounds was measured in mice bearing transplantable tumors. Survival or tumor size were measured and the results are expressed as the measurement made in the treated group (T) divided by the measurement made in the vehicle treated control group (C). The tumor model used in this assay is Mammary Adenocarcinoma CD8F1 (subcutaneous) in CD8F1
compound,measurement,setting,value
CC[C@]1(O)C[C@H]2CN(CCc3c([nH]c4ccccc34)[C@@](C(=O)OC)(c3cc4c(cc3OC)N(C=O)[C@H]3[C@@](O)(C(=O)OC)[C@H](OC(C)=O)[C@]5(CC)C=CCN6CC[C@]43[C@@H]65)C2)C1,T/C,"endpoint: mean tumor weight, dose: 0.07 mg/kg/injection, schedule: Q01DX009 (ip), vehicle: saline",180 % of control
same,T/C,"endpoint: mean tumor weight, dose: 0.15 mg/kg/injection, schedule: Q01DX009 (ip), vehicle: saline",123 % of control
same,T/C,"endpoint: mean tumor weight, dose: 0.3 mg/kg/injection, schedule: Q01DX009 (ip), vehicle: saline",54 % of control
same,T/C,"endpoint: mean tumor weight, dose: 0.5 mg/kg/injection, schedule: Q07DX006 (ip), vehicle: saline",49 % of control
same,T/C,"endpoint: mean tumor weight, dose: 1.0 mg/kg/injection, schedule: Q07DX006 (ip), vehicle: saline",71 % of control
same,T/C,"endpoint: mean tumor weight, dose: 2.0 mg/kg/injection, schedule: Q07DX006 (ip), vehicle: saline",12 % of control
same,T/C,"endpoint: median tumor weight (est.), dose: 0.13 mg/kg/injection, schedule: Q01DX005 (ip), vehicle: saline",56 % of control
same,T/C,"endpoint: median tumor weight (est.), dose: 0.19 mg/kg/injection, schedule: Q01DX005 (ip), vehicle: saline",73 % of control
same,T/C,"endpoint: median tumor weight (est.), dose: 0.25 mg/kg/injection, schedule: Q07DX005 (ip), vehicle: saline",64 % of control and 73 % of control and 84 % of control
same,T/C,"endpoint: median tumor weight (est.), dose: 0.28 mg/kg/injection, schedule: Q01DX005 (ip), vehicle: saline",105 % of control
same,T/C,"endpoint: median tumor weight (est.), dose: 0.5 mg/kg/injection, schedule: Q07DX005 (ip), vehicle: saline",39 % of control and 43 % of control and 45 % of control
same,T/C,"endpoint: median tumor weight (est.), dose: 0.95 mg/kg/injection, schedule: Q07DX005 (ip), vehicle: saline",29 % of control
same,T/C,"endpoint: median tumor weight (est.), dose: 1.0 mg/kg/injection, schedule: Q07DX005 (ip), vehicle: saline",6 % of control
same,T/C,"endpoint: median tumor weight (est.), dose: 1.4 mg/kg/injection, schedule: Q04DX005 (ip), vehicle: saline",6 % of control
same,T/C,"endpoint: median tumor weight (est.), dose: 1.4 mg/kg/injection, schedule: Q07DX005 (ip), vehicle: saline",8 % of control
same,T/C,"endpoint: median tumor weight (est.), dose: 2.0 mg/kg/injection, schedule: Q07DX005 (ip), vehicle: saline",1 % of control
COC1C(O)CC(OC2C(C)OC(Oc3cc(O)c4c(O)c5c(cc4c3)C[C@@H]([C@H](OC)C(=O)[C@@H](O)[C@@H](C)O)[C@H](OC3CC(OC4CC(OC6CC(C)(O)C(O)C(C)O6)C(O)C(C)O4)C(O)C(C)O3)C5=O)CC2OC(C)=O)OC1C (stereo partly drawn),T/C,"endpoint: median tumor weight (est.), dose: 18.75 mg/kg/injection, schedule: Q07DX005 (ip), vehicle: suspension in saline",207 % of control
same,T/C,"endpoint: median tumor weight (est.), dose: 75.0 mg/kg/injection, schedule: Q07DX005 (ip), vehicle: suspension in saline",66 % of control
same,T/C,"endpoint: median tumor weight (est.), dose: 150.0 mg/kg/injection, schedule: Q07DX005 (ip), vehicle: suspension in saline",111 % of control
same,T/C,"endpoint: median tumor weight (est.), dose: 300.0 mg/kg/injection, schedule: Q07DX005 (ip), vehicle: suspension in saline",123 % of control
CS(=O)(=O)Nc1ccc(C(=O)CCN2CCCCCC2)cc1,T/C,"endpoint: median tumor weight change, dose: 125.0 mg/kg/injection, schedule: Q01DX001 (ip), vehicle: suspension in saline",157 % of control
same,T/C,"endpoint: median tumor weight change, dose: 250.0 mg/kg/injection, schedule: Q01DX001 (ip), vehicle: suspension in saline",166 % of control
same,T/C,"endpoint: median tumor weight change, dose: 500.0 mg/kg/injection, schedule: Q01DX001 (ip), vehicle: suspension in saline",92 % of control
CN=C(NC#N)NCCSCc1nc[nH]c1C,T/C,"endpoint: median tumor weight change, dose: 250.0 mg/kg/injection, schedule: Q01DX001 (ip), vehicle: Klucel (hydroxypropylcellulose) (HPC)",57 % of control
CC[C@H](CC[C@@H](C)C1CC[C@H]2[C@@H]3CC=C4C[C@@H](OP(=O)(N5CC5)N5CC5)CC[C@]4(C)[C@H]3CC[C@]12C)C(C)C (stereo partly drawn),T/C,"endpoint: median tumor weight (est.), dose: 25.0 mg/kg/injection, schedule: Q07DX005 (ip), vehicle: saline with Tween-80",77 % of control
same,T/C,"endpoint: median tumor weight (est.), dose: 50.0 mg/kg/injection, schedule: Q07DX005 (ip), vehicle: saline with Tween-80",56 % of control and 75 % of control
same,T/C,"endpoint: median tumor weight (est.), dose: 200.0 mg/kg/injection, schedule: Q07DX005 (ip), vehicle: saline with Tween-80",72 % of control and 75 % of control
same,T/C,"endpoint: median tumor weight change, dose: 125.0 mg/kg/injection, schedule: Q01DX001 (ip), vehicle: saline with Tween-80",82 % of control
same,T/C,"endpoint: median tumor weight change, dose: 1000.0 mg/kg/injection, schedule: Q01DX001 (ip), vehicle: saline with Tween-80",41 % of control and 44 % of control
same,T/C,"endpoint: median tumor weight change, dose: 2000.0 mg/kg/injection, schedule: Q01DX001 (ip), vehicle: saline with Tween-80",9 % of control and 14 % of control
COc1cccc2c1C(=O)c1c(O)c3c(c(O)c1C2=O)CC(O)(C(=O)CO)CC3OC1CC(N)C(O)C(C)O1 (stereo not drawn),T/C,"endpoint: median tumor weight (est.), dose: 12.0 mg/kg/injection, schedule: Q07DX006 (ip), vehicle: saline",37 % of control
same,T/C,"endpoint: median tumor weight (est.), dose: 20.0 mg/kg/injection, schedule: Q07DX005 (ip), vehicle: water",33 % of control
same,T/C,"endpoint: median tumor weight (est.), dose: 24.0 mg/kg/injection, schedule: Q07DX006 (ip), vehicle: saline",18 % of control
same,T/C,"endpoint: median tumor weight (est.), dose: 30.0 mg/kg/injection, schedule: Q07DX005 (ip), vehicle: saline",33 % of control
same,T/C,"endpoint: median tumor weight (est.), dose: 30.0 mg/kg/injection, schedule: Q07DX005 (ip), vehicle: water",11 % of control and 22 % of control
same,T/C,"endpoint: median tumor weight (est.), dose: 45.0 mg/kg/injection, schedule: Q07DX005 (ip), vehicle: water",1 % of control and 11 % of control
same,T/C,"endpoint: median tumor weight (est.), dose: 48.0 mg/kg/injection, schedule: Q07DX006 (ip), vehicle: saline",1 % of control
same,T/C,"endpoint: median tumor weight (est.), dose: 60.0 mg/kg/injection, schedule: Q07DX005 (ip), vehicle: saline",14 % of control and 18 % of control

# From PubChem BioAssay AID220 (DTP/NCI, 2004)
